One test addresses T1, wildtype Kras / hSOS1 (Homo sapiens, UniProt P01116).
T1 construct: made in house; host or cells: E. coli BL21 (DE3)
The experiment in a line: HTRF assay, wildtype Kras / SOS1 interaction. It counts as binding. The following applies: read-out: IC50 against wildtype Kras. The text has this:
(§1) This assay can be also used to assess a selective inhibition of a mutant Ras protein relative to a wildtype, or relative to a different mutant Ras protein. For example, the equilibrium interaction of wildtype Kras or K-Ras mutant (e.g., wildtype or a mutant thereof including those mentioned in Example 6) with SOS1 (e.g., hSOS1) can be assessed as a proxy or an indication for a subject compound's ability to bind and inhibit Ras protein. HTRF assay detects from (i) a fluorescence resonance energy transfer (FRET) donor (e.g., antiGST-Europium) that is bound to GST-tagged K-Ras mutant to (ii) a FRET acceptor (e.g., anti-6His-XL665) bound to a His-tagged hSOS1.
(§2) The assay buffer can contain ˜5 mM HEPES pH 7.4, ˜150 mM NaCl, ˜ 1 mM DTT, 0.05% BSA and 0.0025% (v/v) Igepal. A Ras working solution is prepared in an assay buffer containing typically a suitable amount of the protein construct (e.g., GST-tagged K-Ras mutant) and the FRET donor (e.g., antiGST-Eu(K) from Cisbio, France). A SOS1 working solution is prepared in an assay buffer containing suitable amount of the protein construct (e.g., His-hSOS1) and the FRET acceptor (e.g., anti-6His-XL665 from Cisbio, France). A suitable amount of the protein construct will depend on the range of activity or range of IC50 values being detected or under investigation. For detecting IC50 within a range of 500 nM, the protein constructs of the same range of molarity can be utilized.
(§3) A fixed volume of DMSO with or without test compound is transferred into a 384-well plate. Ras working solution is added to all wells of the test plate. SOS1 working solution is added to all wells except for those that are subsequently filled the inhibitor control solution. Upon incubation for about 10 minutes or longer, the fluorescence is measured with a M1000Pro plate reader (Tecan) using HTRF detection (excitation 337 nm, emission 1: 620 nm, emission 2: 665 nm). Compounds are tested in duplicates at different concentrations (for example, 10 μM, 2.5 μM, 0.63 μM, 0.16 μM, 0.04 µM, 0.01 μM test compound). The ratiometric data (i.e., emission 2 divided by emission 1) is used to calculate IC50 values against Ras using GraphPad Prism (GraphPad software). Following this general procedure, samples were tested with or without a subject compound disclosed herein including compounds exemplified in Table 1 to assess their abilities to inhibit K-Ras signaling or their respective IC50 values against a given Ras protein (e.g., a given mutant K-Ras) of interest.
(In general: In TR-FRET formats the signal depends on donor and acceptor labels being close together.)

Test [1] deals with GST-tagged K-Ras mutant / His-tagged hSOS1 (Homo sapiens, UniProt P01116). The experiment in a line: HTRF assay, K-Ras mutant / SOS1 interaction. It counts as binding. The conditions noted are these: read-out: IC50 against mutant Kras.
Excerpt: as §1, §2, §3

Where [2] appears, read: compound nos. 102-196, general methodology of example 5.

This note sets out measurements from patent US20240254129A1, “HETEROCYCLIC COMPOUNDS AND USES THEREOF” (Kumquat Biosciences Inc., priority 2021, published 2024).

Where two headings read alike, the source gives them in different places.

Chain of GST-tagged K-Ras mutant / His-tagged hSOS1 (P01116 whole entry G12D, form open): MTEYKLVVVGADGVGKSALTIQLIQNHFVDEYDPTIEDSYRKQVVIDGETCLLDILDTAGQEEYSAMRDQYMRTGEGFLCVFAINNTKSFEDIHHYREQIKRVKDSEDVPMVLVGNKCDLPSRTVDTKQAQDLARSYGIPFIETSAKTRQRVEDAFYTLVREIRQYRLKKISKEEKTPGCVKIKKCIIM
T1 sequence (P01116 1-188 isoform P01116-2): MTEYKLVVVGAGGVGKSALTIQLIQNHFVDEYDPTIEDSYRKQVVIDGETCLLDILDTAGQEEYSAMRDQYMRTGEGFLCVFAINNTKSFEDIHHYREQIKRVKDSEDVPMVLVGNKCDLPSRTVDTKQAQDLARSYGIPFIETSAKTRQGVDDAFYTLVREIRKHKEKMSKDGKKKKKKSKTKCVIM

As usually defined, the IC50 is the concentration needed to halve the response being measured. On to `Nc1nc2c(-c3c(Cl)cc4c(N5CCC[C@H](N)CC5)nc(OC[C@@]56CCCN5C[C@H](F)C6)nc4c3F)ccc(F)c2s1` [Compound 600, 4-(4-((S)-4-aminoazepan-1-yl)-6-chloro-8-fluoro-2-(((2R,7aS)-2-fluorotetra-hydro-1H-pyrrolizin-7a(5H)-yl)methoxy)quinazolin-7-yl)-7-fluorobenzo[d]thiazol-2-amine], for which the IC50 on wildtype Kras / hSOS1 (compound nos. 401-703) is above 500 nM; in test [1] (compound nos. 401-703), below 500 nM.

In the case of `Nc1nc2c(-c3c(Cl)cc4c(N5CCC6CNCC6C5)nc(OC[C@@]56CCCN5C[C@H](F)C6)nc4c3F)ccc(F)c2s1` (stereo partly drawn) [Compound 623, 4-(6-chloro-8-fluoro-2-(((2R,7aS)-2-fluorotetra-hydro-1H-pyrrolizin-7a(5H)-yl)methoxy)-4-(octahydro-5H-pyrrolo[3,4-c]pyridin-5-yl)quinazolin-7-yl)-7-fluoro-benzo[d]thiazol-2-amine], the IC50 on wildtype Kras / hSOS1 (compound nos. 401-703) was above 500 nM; in test [1] (compound nos. 401-703), below 500 nM.

In the case of `CN(C)CC1(COc2nc(N3CC4CCC(C3)N4)c3ccc(-c4ccc(F)c5sc(N)nc45)c(F)c3n2)CC1` [Compound 428, 4-(4-(3,8-diazabicyclo-[3.2.1]-octan-3-yl)-2-((1-((dimethylamino)methyl)-cyclopropyl)methoxy)-8-fluoroquinazolin-7-yl)-7-fluorobenzo[d]thiazol-2-amine], the results for the IC50 (on wildtype Kras / hSOS1 (compound nos. 401-703); in test [1] (compound nos. 401-703)) were below 500 nM and above 500 nM, respectively.

Take `Nc1c(Cl)cccc1-c1c(Cl)cc2c(N3CC4CCC(C3)N4)nc(OCC34CCCN3CCC4)nc2c1F` [Compound 589, 2-(4-(3,8-diazabicyclo-[3.2.1]octan-3-yl)-6-chloro-8-fluoro-2-((tetrahydro-1H-pyrrolizin-7a(5H)-yl)meth-oxy)quinazolin-7-yl)-6-chloroaniline]: the IC50 (on wildtype Kras / hSOS1 (compound nos. 401-703); in test [1] (compound nos. 401-703)) was above 500 nM each time.

For `Nc1nc2c(-c3cc4c(=O)n(CCN5CCCC5)nc(N5C[C@H]6CC[C@@H](C5)N6)c4cc3Cl)ccc(F)c2s1` [Compound 404, 7-(2-amino-7-fluorobenzo[d]thiazol-4-yl)-4-((1R,5S)-3,8-diazabicyclo[3.2.1]octan-3-yl)-6-chloro-2-(2-(pyrrolidin-1-yl)ethyl)phthalazin-1(2H)-one], the IC50 is below 500 nM at wildtype Kras / hSOS1 (compound nos. 401-703) and above 500 nM in test [1] (compound nos. 401-703).

As for `Nc1nc2c(-c3c(Cl)cc4c(N5CC6CCC(CC6)C5)nc(OC[C@@]56CCCN5C[C@H](F)C6)nc4c3F)ccc(F)c2s1` [Compound 690, 4-(4-(3-azabicyclo[3.2.2]-nonan-3-yl)-6-chloro-8-fluoro-2-(((2R,7aS)-2-fluorotetrahydro-1H-pyrrol-izin-7a(5H)-yl)methoxy)-quinazolin-7-yl)-7-fluoro-benzo[d]thiazol-2-amine], the IC50 is above 500 nM on wildtype Kras / hSOS1 (compound nos. 401-703) and below 500 nM in test [1] (compound nos. 401-703).

With `N#CC1CCCN(c2nc(OC[C@@]34CCCN3C[C@H](F)C4)nc3c(F)c(-c4ccc(F)c5sc(N)nc45)c(Cl)cc23)CC1` (stereo partly drawn) [Compound 433, 1-(7-(2-amino-7-fluoro-benzo[d]thiazol-4-yl)-6-chloro-8-fluoro-2-(((2R,7aS)-2-fluorotetra-hydro-1H-pyrrolizin-7a(5H)-yl)methoxy)quin-azolin-4-yl)azepane-4-carbonitrile], the IC50 (on wildtype Kras / hSOS1 (compound nos. 401-703); in test [1] (compound nos. 401-703)) was below 500 nM throughout.

As to `Cc1ncc(Oc2nc(N3CCCCCC3)c3cc(Cl)c(-c4cccc5sc(N)nc45)c(F)c3n2)cn1` [Compound 461, 4-(4-(azepan-1-yl)-6-chloro-8-fluoro-2-((2-methylpyrim-idin-5-yl)oxy)quinazolin-7-yl)benzo[d]thiazol-2-amine], the IC50 was below 500 nM at wildtype Kras / hSOS1 (compound nos. 401-703) and above 500 nM in test [1] (compound nos. 401-703).

Regarding `CN1CCC[C@H]1COc1nc2c(c(N3CCNCC(F)(F)C3)n1)CCN(c1cc(O)cc3ccccc13)C2` [Compound 419, (S)-4-(4-(6,6-difluoro-1,4-diazepan-1-yl)-2-((1-methylpyrrolidin-2-yl)methoxy)-5,8-dihydropyrido[3,4-d]pyrimidin-7(6H)-yl)naphthalen-2-ol], the IC50 (on wildtype Kras / hSOS1 (compound nos. 401-703); in test [1] (compound nos. 401-703)) was below 500 nM in each case.

As to `Cc1ccc2[nH]nc(C#N)c2c1-c1c(Cl)cc2c(N3CC4CCC(C3)N4)nc(OC[C@@]34CCCN3C[C@H](F)C4)nc2c1F` [Compound 632, 4-(4-(3,8-diazabicyclo-[3.2.1]octan-3-yl)-6-chloro-8-fluoro-2-(((2R,7aS)-2-fluorotetrahydro-1H-pyrrol-izin-7a(5H)-yl)methoxy)-quin-azolin-7-yl)-5-methyl-1H-indazole-3-carbonitrile], the IC50 was above 500 nM on wildtype Kras / hSOS1 (compound nos. 401-703) and below 500 nM in test [1] (compound nos. 401-703).

Regarding `COc1nc2c(N3CC4CCC(C3)N4)nc(OCC34CCCN3CCC4)nc2cc1-c1cccc2cccc(Cl)c12` [Compound 544, 4-(3,8-diazabicyclo[3.2.1]-octan-3-yl)-7-(8-chloronaph-thalen-1-yl)-6-methoxy-2-((tetrahydro-1H-pyrrolizin-7a(5H)-yl)methoxy)pyrido-[3,2-d]pyrimidine], the IC50 (on wildtype Kras / hSOS1 (compound nos. 401-703); in test [1] (compound nos. 401-703)) was above 500 nM in each case.

For the compound `N#Cc1c(N)sc2c(F)ccc(-c3c(Cl)cc4c(N5CC6CCC(C5)N6)nc(OC[C@@]56CCCN5C[C@H](F)C6)nc4c3F)c12` [Compound 638, 4-(4-(3,8-diazabicyclo-[3.2.1]octan-3-yl)-6-chloro-8-fluoro-2-(((2R,7aS)-2-fluorotetrahydro-1H-pyrrol-izin-7a(5H)-yl)methoxy)-quinazolin-7-yl)-2-amino-7-fluorobenzo[b]thiophene-3-carbonitrile], the IC50 at wildtype Kras / hSOS1 (compound nos. 401-703) was above 500 nM; in test [1] (compound nos. 401-703) it was below 500 nM.

For the compound `CO[C@@H]1CN(C)C[C@H]1Oc1nc(N2CC3CCC(C2)N3)c2cc(CCC#N)c(-c3ccc(F)c4sc(N)nc34)c(F)c2n1` [Compound 424, 3-(7-(2-amino-7-fluoro-benzo[d]thiazol-4-yl)-4-(3,8-diazabicyclo[3.2.1]octan-3-yl)-8-fluoro-2-(((3R,4R)-4-methoxy-1-methylpyrrolidin-3-yl)oxy)quinazolin-6-yl)-propanenitrile], the IC50 at wildtype Kras / hSOS1 (compound nos. 401-703) was below 500 nM; in test [1] (compound nos. 401-703), above 500 nM.

On to `CN(C)C1CN(c2nc(N3CC4CCC(C3)N4)c3cc(Cl)c(-c4ccc(F)c5sc(N)nc45)c(F)c3n2)C1` [Compound 503, 4-(4-(3,8-diazabicyclo-[3.2.1]octan-3-yl)-6-chloro-2-(3-(dimethyl-amino)azetidin-1-yl)-8-fluoroquinazolin-7-yl)-7-fluorobenzo[d]thiazol-2-amine], for which the IC50 (on wildtype Kras / hSOS1 (compound nos. 401-703); in test [1] (compound nos. 401-703)) was above 500 nM in each case.

`Nc1nc2c(-c3c(Cl)cc4c(N5CCCCC(F)C5)nc(OC[C@@]56CCCN5C[C@H](F)C6)nc4c3F)ccc(F)c2s1` (stereo partly drawn) [Compound 190, 4-(6-chloro-8-fluoro-4-(3-fluoroazepan-1-yl)-2-(((2R,7aS)-2-fluorotetra-hydro-1H-pyrrolizin-7a(5H)-yl)methoxy)quin-azolin-7-yl)-7-fluorobenzo-[d]thiazol-2-amine]: the IC50 (at wildtype Kras / hSOS1 (setting [2]); in test [1] (setting [2])) was below 500 nM each time.

Take `CN1CCC[C@H]1COc1nc(N2CCCCC(F)C2)c2cc(Cl)c(-c3cccc4sc(N)nc34)c(F)c2n1` (stereo partly drawn) [Compound 181, 4-(6-chloro-8-fluoro-4-(3-fluoroazepan-1-yl)-2-(((S)-1-methylpyrrolidin-2-yl)-methoxy)quinazolin-7-yl)-benzo[d]thiazol-2-amine]: the IC50 (on wildtype Kras / hSOS1 (setting [2]); in test [1] (setting [2])) was below 500 nM throughout.

Turning to `CN(C)C1CN(c2nc(N3CC4CCC(C3)N4)c3cc(CCC#N)c(-c4ccc(F)c5sc(N)nc45)c(F)c3n2)C1` [Compound 516, 3-(7-(2-amino-7-fluoroben-zo[d]thiazol-4-yl)-4-(3,8-diazabicyclo[3.2.1]octan-3-yl)-2-(3-(dimethylamino)-azetidin-1-yl)-8-fluoroquin-azolin-6-yl)propanenitrile], the IC50 (on wildtype Kras / hSOS1 (compound nos. 401-703); in test [1] (compound nos. 401-703)) was above 500 nM each time.

Regarding `CN1CCC[C@H]1COc1nc(N2CCCC(n3ccnc3)CC2)c2cc(Cl)c(-c3cccc4sc(N)nc34)c(F)c2n1` (stereo partly drawn) [Compound 490, 4-(4-(4-(1H-imidazol-1-yl)-azepan-1-yl)-6-chloro-8-fluoro-2-(((S)-1-methylpyr-rolidin-2-yl)methoxy)quin-azolin-7-yl)benzo[d]thiazol-2-amine], the figures for the IC50 (at wildtype Kras / hSOS1 (compound nos. 401-703); in test [1] (compound nos. 401-703)) were below 500 nM and above 500 nM, respectively.
